From patent US8946224B2, “Substituted [1,2,4]triazolo[4,3-A]pyrazines for medicaments and pharmaceutical compositions” (Redx Pharma Limited, priority 2010, dated 2015) come the findings set out here.

In one assay the test system is HepG2 cells. In words: HepG2 cytotoxicity, MTT, 72 hours (Examples 93-95). In kind it is cell-based. As to conditions: for MEC (minimum effective concentration that significantly crosses vehicle threshold) / AC50: Cell Loss; for AC50: Homo sapiens, HepG2, read-out: AC50 (concentration at which 50% maximum effect is observed). The method, then: Methodology for Examples 93-95
A number of analogues were tested for their ability to kill cancer cells.
HepG2 cells were plated on 96-well tissue culture treated polystyrene plates at 0.5×10^4 cells in 100 μL per well. After 24 hr the cells are dosed with test compound at a range of concentrations and incubated for 72 hours. One hour prior to the end of the incubation period, the cells are loaded with MU [yellow; 3-(4,5-dimethyl-2-thiazolyl)-2,5-diphenyl-2H-tetrazolium bromide], the plates are dried and re-solubilised using DMSO. The plates are then scanned using SpectraFluor Plus (TECAN).
Cytotoxicity was assessed using MU. The assay provides a measurement of mitochondrial dehydrogenase activity and cell loss.
A decrease can indicate a loss of cells indicating toxicity due to necrosis, apoptosis or a reduction in cellular proliferation.
A decrease can also indicate an effect on mitochondrial function as mitochondrial dehydrogenasesreduce the MTT [yellow; 3-(4,5-dimethyl-2-thiazolyl)-2,5-diphenyl-2H-tetrazolium bromide] to formazan. The formazan is detected in this assay.
The cells were dosed at concentrations of 0.04, 0.1, 0.4, 1, 4, 10, 40 and 100 μM. The assay was repeated three times at each concentration.
AC50=The concentration at which 50% maximum effect is observed for each cell health parameter.
The cells were dosed at concentrations of 0.02, 0.05, 0.2, 0.5, 2, 5, 20 and 50 μM. The assay was repeated three times at each concentration.
The cells were dosed at concentrations of 0.04, 0.1, 0.4, 1, 4, 10, 40 and 100 μM for bexarotene and the compound of formula 102 when Z is CH═NOH (compound 13a). The cells were dosed at concentrations of 0.02, 0.05, 0.2, 0.5, 2, 5, 20 and 50 μM for the compound of formula 102 when Z is CH═NOMe (compound 13b). The assay was repeated three times at each concentration.

Assay [1] relates to PathHunter NHRPro cell lines. In words: PathHunter NHRPro cell assay, antagonist format (Examples 90-92). The class given is cell-based. Particulars: for Emax: read-out: Max Response; for IC50: read-out: RC50 (IC50). The protocol: Methodology for Examples 90-92 Cell Handling
PathHunter NHRPro cell lines were expanded from freezer stocks in T25 flasks according to standard procedures and maintained in selective growth media prior to assay.
Once it was established that the cells were healthy and growing normally, cells were passaged from flasks using cell dissociation reagent and seeded into white walled clear bottom 384-well microplates for compound profiling.
For profiling, cells were seeded at a density of 10000 cells per well in a total volume of 20 μL and were allowed to adhere and recover overnight prior to compound addition. Media contained charcoal-dextran filtered serum to reduce the level of hormones present.
Agonist dose curves were performed the morning of profiling to determine the EC80 value for the following antagonist testing with compounds. 5 μL of 5× agonist was added to each well with an equal concentration of vehicle present.
EC80 agonist concentration was determined directly from agonist dose curve.
For antagonist determination, cells were pre-incubated with antagonist followed by agonist challenge at the EC80 concentration.
5 μL of 5× compound added to cells and incubated at 37° C. for 30 minutes.
5 μL of 6× EC80 agonist added to cells and incubated at 37° C. for 90 minutes (180 minutes for EDG2 and EDG8).
After appropriate compound incubation, assay signal was generated through a single addition of 15 μL (50% v/v) of PathHunter Detection reagent cocktail for agonist and antagonist assays respectively followed by one hour incubation at room temperature.
Microplates were read following signal generation with a PerkinElmer Envision™ instrument for chemiluminescent signal detection.
Dose curves in the presence and absence of compound were plotted using GraphPad Prism or Activity Base.

A further assay addresses T1, recombinant human MAO-B (Homo sapiens, UniProt P27338).
T1 sequence (P27338 1-520): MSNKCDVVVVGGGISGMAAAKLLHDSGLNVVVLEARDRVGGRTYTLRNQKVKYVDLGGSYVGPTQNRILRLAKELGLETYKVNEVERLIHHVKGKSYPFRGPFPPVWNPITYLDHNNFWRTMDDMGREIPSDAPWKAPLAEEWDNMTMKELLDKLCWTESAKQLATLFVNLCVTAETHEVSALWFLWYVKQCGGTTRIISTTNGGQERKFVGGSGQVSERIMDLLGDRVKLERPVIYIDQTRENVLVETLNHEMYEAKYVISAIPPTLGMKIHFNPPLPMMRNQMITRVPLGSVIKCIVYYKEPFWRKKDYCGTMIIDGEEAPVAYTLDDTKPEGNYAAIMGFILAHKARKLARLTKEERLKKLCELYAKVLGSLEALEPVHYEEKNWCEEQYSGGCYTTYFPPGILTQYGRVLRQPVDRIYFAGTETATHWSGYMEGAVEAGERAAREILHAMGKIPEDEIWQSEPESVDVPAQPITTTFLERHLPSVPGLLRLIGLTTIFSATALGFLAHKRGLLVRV
The assay can be described thus: MAO-B inhibition, kynuramine substrate, LC-MS/MS of 4-hydroxyquinoline (Example 99). In kind it is biochemical. As to conditions: for remaining activity at 0.001 µM: 0.001 μM test compound; for remaining activity at 0.001 µM / remaining activity at 0.01 µM / remaining activity at 0.04 µM / remaining activity at 0.1 µM / remaining activity at 0.4 µM / remaining activity at 1 µM / remaining activity at 10 µM: kynuramine 25 μM, read-out: Mean % Activity Remaining (n = 2); for remaining activity at 0.01 µM: 0.010 μM test compound; for remaining activity at 0.04 µM: 0.04 μM test compound; for remaining activity at 0.1 µM: 0.1 μM test compound; for remaining activity at 0.4 µM: 0.4 μM test compound; for remaining activity at 1 µM: 1 μM test compound; for remaining activity at 10 µM: 10 μM test compound; for IC50: MAO-B, substrate kynuramine 25 μM. The protocol:
Eight test compound concentrations (0.001-10 μM; final DMSO concentration 0.5%) were incubated with recombinant human MAO-B (2 μg/mL) in the presence of the probe substrate kynuramine (25 μM) for 25 min at 37° C. Each test compound concentration was assessed in duplicate. […] The reactions were terminated by addition of methanol containing internal standard for analytical quantification. The quenched samples were incubated at 4° C. for 10 min and centrifuged at 4° C. for 10 min. The supernatant was removed and analysed by LC-MS/MS for the probe metabolite 4-hydroxyquinoline. Generic Cyprotex LC-MS/MS analytical conditions were used.
A decrease in the formation of the metabolite compared to vehicle control was used to calculate an IC50 value.

Where [2] appears, read: Example 95, dosed 0.04-100 μM (compound 13b 0.02-50 μM).

Where two headings read alike, the source gives them in different places.

In the case of `Cn1c(CCCC(=O)O)nc2cc(N(CCCl)CCCl)ccc21` [Bendamustine, bendamustine, reference compound], in the assay with HepG2 cells (Example 93, dosed 0.04-100 μM), the “MEC (minimum effective concentration that significantly crosses vehicle threshold)” value came out at 40 µM and the AC50 amounted to 92.3 µM.

On to `C=C(c1ccc(C(=O)O)cc1)c1cc2c(cc1C)C(C)(C)CCC2(C)C` [Bexarotene, bexarotene, reference compound], for which, in the assay on HepG2 cells (setting [2]), the “MEC (minimum effective concentration that significantly crosses vehicle threshold)” value amounted to 40 µM and the AC50 was 44.3 µM.

A word on the IC50: it is the midpoint of a concentration-inhibition curve. `CCOc1nc2cccc(C(=O)O)c2n1Cc1ccc(-c2ccccc2-c2nnn[nH]2)cc1` [Candesartan]: in assay [1] (AGTR1, Arrestin), the Emax was 101% and the IC50 worked out at 0.00987 µM.

With `CCCCc1nc(Cl)c(C=NO)n1Cc1ccc(-c2ccccc2-c2nn[nH]n2)cc1` [Compound 4a, 1-((2′-(2H-Tetrazol-5-yl)-[1,1′-biphenyl]-4-yl)methyl)-2-butyl-4-chloro-1H-imidazole-5-carbaldehyde oxime], in assay [1] (AGTR1, Arrestin), the Emax is 96.7% and the IC50 is 0.109 µM.

Take `CCCCc1nc(Cl)c(C=NOC)n1Cc1ccc(-c2ccccc2-c2nn[nH]n2)cc1` [Compound 4b, 1-((2′-(2H-Tetrazol-5-yl)-[1′,1′-biphenyl]-4-yl)methyl)-2-butyl-4-chloro-1H-imidazole-5-carbaldehyde O-methyl oxime]: in assay [1] (AGTR1, Arrestin), the Emax is 97.4% and the IC50 was found to be 0.248 µM.

Consider `Cn1c(CCCC=O)nc2cc(N(CCCl)CCCl)ccc21` [Compound 6a, 4-(5-(Bis(2-chloroethyl)amino)-1-methyl-1H-benzo[d]imidazol-2-yl)butanal], for which, in the assay with HepG2 cells (Example 93, dosed 0.04-100 μM), the “MEC (minimum effective concentration that significantly crosses vehicle threshold)” value turned out to be 4 µM and the AC50 was 5.83 µM. In the assay on HepG2 cells (Example 93, 0.04-100 μM, 72 hours), the “Activity in HepG2 cell assay (in words)” value was “exhibited a higher activity than compound 6b”.

Regarding `Cn1c(CCCC=NO)nc2cc(N(CCCl)CCCl)ccc21` [Compound 6b, 4-(5-(Bis(2-chloroethyl)amino)-1-methyl-1H-benzo[d]imidazol-2-yl)butanal oxime], in the assay on HepG2 cells (Example 93, dosed 0.04-100 μM), the “MEC (minimum effective concentration that significantly crosses vehicle threshold)” value was 10 µM and the AC50 was determined as 17.3 µM.

For the compound `CCOc1nc2cccc(C=NO)c2n1Cc1ccc(-c2ccccc2-c2nnn[nH]2)cc1` [Compound 10a, 1-((2′-(1H-Tetrazol-5-yl)-[1,1′-biphenyl]-4-yl)methyl)-2-ethoxy-1H-benzo[d]imidazole-7-carbaldehyde oxime], in assay [1] (AGTR1, Arrestin), the Emax came out at 101% and the IC50 was 0.0465 µM.

As to `CCOc1nc2cccc(C=NOC)c2n1Cc1ccc(-c2ccccc2-c2nnn[nH]2)cc1` [Compound 10b, 1-((2′-(1H-tetrazol-5-yl)-[1,1′-biphenyl]-4-yl)methyl)-2-ethoxy-1H-benzo[d]imidazole-7-carbaldehyde O-methyl oxime], in assay [1] (AGTR1, Arrestin), the Emax was determined as 98.8% and the IC50 stood at 0.0488 µM.

Consider `Cc1ccc(F)cc1C(=O)Nc1ccc(CN2Cc3cccn3Cc3ccccc32)c(Cl)c1` [Compound 15a, N-(4-((5H-Benzo[e]pyrrolo[1,2-a][1,4]diazepin-10(11H)-yl)methyl)-3-chlorophenyl)-5-fluoro-2-methylbenzamide], for which, in assay [1] (AVPR2, Arrestin), the Emax is 108% and the IC50 was 0.0038 µM.

For `Cc1ccc(F)cc1CNc1ccc(C(=O)N2Cc3cccn3Cc3ccccc32)c(Cl)c1` [Compound 15b, (5H-Benzo[e]pyrrolo[1,2-a][1,4]diazepin-10(11H)-yl)(2-chloro-4-(5-fluoro-2-methylbenzylamino)phenyl)methanone], in assay [1] (AVPR2, Arrestin), the Emax is 79.4% and the IC50 was 2.37 µM.

Broadly, the remaining activity is the signal under treatment as a percentage of the control signal. In the case of `C[C@@H](C=NO)NCc1ccc(OCc2cccc(F)c2)cc1` [Compound 31a, (S)-2-(4-(3-Fluorobenzyloxy)benzylamino)propanal oxime], at recombinant human MAO-B, the remaining activity at 0.001 µM was 90%, the remaining activity at 0.01 µM is 84%, the remaining activity at 0.04 µM amounted to 73% and the remaining activity at 0.1 µM was determined as 65%. Moreover, on recombinant human MAO-B, the remaining activity at 0.4 µM worked out at 50%, the remaining activity at 1 µM stood at 26%, the remaining activity at 10 µM stood at 4% and the IC50 turned out to be 0.246 µM.

Turning to `CON=C[C@H](C)NCc1ccc(OCc2cccc(F)c2)cc1` [Compound 31b, (S)-2-(4-(3-Fluorobenzyloxy)benzylamino)propanal O-methyl oxime], at recombinant human MAO-B, the remaining activity at 0.001 µM came out at 90%, the remaining activity at 0.01 µM was determined as 75%, the remaining activity at 0.04 µM stood at 57% and the remaining activity at 0.1 µM was 34%. In addition, at recombinant human MAO-B, the remaining activity at 0.4 µM came out at 15%, the remaining activity at 1 µM was 6%, the remaining activity at 10 µM was found to be 1% and the IC50 amounted to 0.046 µM.

As for `Cc1ccc(F)cc1C(=O)Nc1ccc(C(=O)N2Cc3cccn3Cc3ccccc32)c(Cl)c1` [Lixivaptan, lixivaptan, reference compound], in assay [1] (AVPR2, Arrestin), the Emax was determined as 102% and the IC50 was 0.00128 µM.

In the case of `CCCCc1nc(Cl)c(CO)n1Cc1ccc(-c2ccccc2-c2nn[nH]n2)cc1` [Losartan], in assay [1] (AGTR1, Arrestin), the Emax stood at 98.6% and the concentration for half-maximal inhibition (IC50) was 0.00821 µM.

Take `C[C@H](NCc1ccc(OCc2cccc(F)c2)cc1)C(N)=O` [Safinamide, safinamide, reference compound]: on recombinant human MAO-B, the remaining activity at 0.001 µM turned out to be 101%, the remaining activity at 0.01 µM came to 95%, the remaining activity at 0.04 µM amounted to 79% and the remaining activity at 0.1 µM came out at 62%. Further, on recombinant human MAO-B, the remaining activity at 0.4 µM was found to be 31%, the remaining activity at 1 µM turned out to be 13% and the remaining activity at 10 µM came to 2%.

In the case of `CCCCC(=O)N(Cc1ccc(-c2ccccc2-c2nnn[nH]2)cc1)[C@H](C(=O)O)C(C)C` [Valsartan], in assay [1] (AGTR1, Arrestin), the Emax was found to be 106% and the IC50 was found to be 0.0017 µM.
